Values of other authors as cited in patent JP2011132186A, “ホルモン不応性前立腺癌治療法及び治療効果予測方法” (University of Tokushima NUC, priority 2009, dated 2011).

Test system: hormone-refractory prostate cancer [ホルモン不応性前立腺癌]
Conditions: large phase III comparative trial in Europe and USA

Row | SMILES | median survival time (OS)
1 | O=C1c2c(O)ccc(O)c2C(=O)c2c(NCCNCCO)ccc(NCCNCCO)c21 [ミトキサントロン] | 16.5 months
2 | CC(=O)O[C@@]12CO[C@@H]1C[C@H](O)[C@@]1(C)C(=O)[C@H](O)C3=C(C)[C@@H](OC(=O)[C@H](O)[C@@H](NC(=O)OC(C)(C)C)c4ccccc4)C[C@@](O)([C@@H](OC(=O)c4ccccc4)[C@H]21)C3(C)C [ドセタキセル] | 18.9 months
